The experiment addresses T1, ASGP receptor (biotinylated ASGPR) (Homo sapiens, UniProt P07306).
T1 construct: biotin (biotinylated)
T1 sequence (P07306 1-291): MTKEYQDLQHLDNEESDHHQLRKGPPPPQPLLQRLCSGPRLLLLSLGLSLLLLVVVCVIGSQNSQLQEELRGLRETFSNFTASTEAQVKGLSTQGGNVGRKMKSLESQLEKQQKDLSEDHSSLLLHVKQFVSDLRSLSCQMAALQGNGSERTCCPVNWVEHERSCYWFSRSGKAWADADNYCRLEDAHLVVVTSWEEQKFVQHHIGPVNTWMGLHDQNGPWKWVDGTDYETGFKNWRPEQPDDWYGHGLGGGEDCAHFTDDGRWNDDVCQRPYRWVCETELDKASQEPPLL
In kind it is binding. The settings on record: SPR, Biacore 8K, 25° C. For orientation: Surface plasmon resonance follows binding to a sensor surface in real time, without labels.

Like-named read-outs stand apart in the source and are kept apart here. Some results are limits rather than exact numbers.

`O=C(O)CCCCCNC(=O)NC[C@H]1OC[C@H](Nc2cncc(C(F)(F)F)n2)[C@@H](O)[C@H]1O` [A115, 6-(3-(((2R,3R,4R,5S)-3,4-dihydroxy-5-((6-(trifluoromethyl)pyrazin-2-yl)amino)tetrahydro-2H-pyran-2-yl)methyl)ureido)hexanoic acid]: the Kd (as a rule, the concentration at which binding is half-saturated) (Table 1A, read-out: ASGPR KD) was below 10 µM.
The same measure, in the same setting: the value for `O=C(O)COCCOCC(=O)NC[C@H]1OC[C@H](Nc2ccnc(C(F)(F)F)n2)[C@@H](O)[C@H]1O` [A116, 2-(2-(2-((((2R,3R,4R,5S)-3,4-dihydroxy-5-((2-(trifluoromethyl)pyrimidin-4-yl)amino)tetrahydro-2H-pyran-2-yl)methyl)amino)-2-oxoethoxy)ethoxy)acetic acid] was below 10 µM; that for `OC[C@H]1NC[C@H](Nc2nccc(C(F)(F)F)n2)[C@@H](O)[C@H]1O` [A117] was below 10 µM.
The same measure, in the same setting: the value for `OC[C@H]1NC[C@H](Nc2cncc(C(F)(F)F)n2)[C@@H](O)[C@H]1O` [A118] was below 10 µM.
Still for that read-out and setting: as for `OC[C@H]1OC[C@H](Nc2cncc(Br)n2)[C@@H](O)[C@H]1O` [A138, (2R,3R,4R,5S)-5-((6-bromopyrazin-2-yl)amino)-2-(hydroxymethyl) tetrahydro-2H-pyran-3,4-diol], the figure is below 10 µM.
With `N#Cc1cc(N[C@H]2CO[C@H](CO)[C@H](O)[C@@H]2O)nc(C(F)(F)F)c1` [A139, 2-(((3S,4R,5R,6R)-4,5-dihydroxy-6-(hydroxymethyl)tetrahydro-2H-pyran-3-yl)amino)-6-(trifluoromethyl)isonicotinonitrile], the dissociation constant Kd (Table 1B, read-out: ASGPR Kd) is below 10 µM.
Still for that read-out and setting: the value for `OC[C@H]1OC[C@H](Oc2nccc(C(F)(F)F)n2)[C@@H](O)[C@H]1O` [A140, (2R,3R,4S,5S)-2-(hydroxymethyl)-5-((4-(trifluoromethyl)pyrimidin-2-yl)oxy)tetrahydro-2H-pyran-3,4-diol] was below 10 µM; that for `OC[C@H]1OC[C@H](Oc2cncc(C(F)(F)F)n2)[C@@H](O)[C@H]1O` [A141, (2R,3R,4S,5S)-2-(hydroxymethyl)-5-((6-(trifluoromethyl)pyrazin-2-yl)oxy)tetrahydro-2H-pyran-3,4-diol] was below 10 µM.
With `OC[C@H]1OC[C@H](Oc2cccc(C(F)(F)F)n2)[C@@H](O)[C@H]1O` [A142, (2R,3R,4S,5S)-2-(hydroxymethyl)-5-((6-(trifluoromethyl)pyridin-2-yl)oxy)tetrahydro-2H-pyran-3,4-diol], the dissociation constant (Kd) (Table 1B, read-out: ASGPR Kd) is below 10 µM.
As to `OC[C@H]1OC[C@H](Nc2cccc(OC(F)(F)F)n2)[C@@H](O)[C@H]1O` [A143, (2R,3R,4R,5S)-2-(hydroxymethyl)-5-((6-(trifluoromethoxy)pyridin-2-yl)amino)tetrahydro-2H-pyran-3,4-diol], the Kd (Table 1B, read-out: ASGPR Kd) was below 10 µM.
For the molecule `O[C@@H]1[C@H](O)[C@@H](Nc2cccc(OC(F)(F)F)n2)CO[C@@H]1COc1cccc(OC(F)(F)F)n1` [A144, (2R,3R,4R,5S)-5-((6-(trifluoromethoxy)pyridin-2-yl)amino)-2-(((6-(trifluoromethoxy)pyridin-2-yl)oxy)methyl) tetrahydro-2H-pyran-3,4-diol], the Kd (Table 1B, read-out: ASGPR Kd) is below 10 µM.
Still for that read-out and setting: the value for `OC[C@H]1OC[C@H](Nc2cncc(Cl)n2)[C@@H](O)[C@H]1O` [A147, (2R,3R,4R,5S)-5-((6-chloropyrazin-2-yl)amino)-2-(hydroxymethyl) tetrahydro-2H-pyran-3,4-diol] was below 10 µM; that for `O=C(c1ccc(Cc2ccccc2)cc1)N1C[C@H](Nc2cncc(C(F)(F)F)n2)[C@@H](O)[C@@H](O)C1` [A148, (4-benzylphenyl)((3S,4R,5S)-3,4-dihydroxy-5-((6-(trifluoromethyl)pyrazin-2-yl)amino)piperidin-1-yl)methanone] was below 10 µM; that for `O=C(OCc1ccccc1)N1C[C@H](Nc2cncc(C(F)(F)F)n2)[C@@H](O)[C@@H](O)C1` [A149, benzyl (3S,4R,5S)-3,4-dihydroxy-5-((6-(trifluoromethyl)pyrazin-2-yl)amino)piperidine-1-carboxylate] was below 10 µM.
